From US20190117586A1, “METHODS OF PREVENTING OR TREATING PARKINSON'S DISEASE BY THE FARNESYLATION OF PARIS” (The Johns Hopkins University, priority 2016, published 2019)

Tests used:
[1] = target: FTase (Homo sapiens, UniProt P49354+P49356); test: In vitro farnesylation of recombinant GST-PARIS by FTase and FPP; format: biochemical
Method: Next, a biotechnological approach to confirm that PARIS is prenylated was applied (Nguyen et al., 2009). The total cell lysate of SH-SY5Y cells transfected with Flag-tagged PARIS was incubated with a biotin-functionalized geranyl pyrophosphate analogue (Biotin-GPP) and the recombinant FTase W102T/Y154T mutant, which was engineered to utilize Biotin-GPP as a lipid donor (Nguyen et al., 2009). […] In addition, the immunoprecipitate of Flag-tagged PARIS from SH-SY5Y cells transfected with either siRNA-control or siRNA-FTase α was mixed with NBD-GPP, a […] fluorescent analog of FPP for an in vitro farnesylation assay (IVF). […] To determine whether FTase directly farnesylates PARIS, recombinant GST-PARIS was incubated with FTase and FPP in the presence and absence of the FTase inhibitor, FTI-277. GST-PARIS undergoes farnesylation by FTase, which is abolished by the addition of FTase inhibitor, FTI-277 (FIG. 3E).
The in vitro farnesylation assay (IVF) was performed as described (Nguyen et al., 2009; Nguyen et al., 2010; Wu et al., 2007). Briefly, for metabolic global farnesylation, 5 μCi [^3H]-farnesyl pyrophosphate (FPP) (NET1042001MC, PerkinElmer) was treated into SH-SY5Y cells and immunoprecipitant was monitored by immunoblot analysis with Farnesyl antibody. […] For fluorescence-based IVF, immunoprecipitated Flag-tagged PARIS was incubated for 20 min with NBD-GPP (LI-014, Jena Bioscience). […]

[2] = tested on: PARIS; test: PARIS farnesylation in SH-SY5Y cells transfected with Flag-tagged PARIS (immunoprecipitation); format: cell-based; settings: PARIS overexpression, farnesol
Method: (§1) Geraniol or geranylgeraniol have no effect on PGC-1α levels (FIG. 3H).
To confirm that farnesylation of PARIS requires FTase, siRNA-FTase α knockdown or FTI-277 inhibition of FTase in the setting of PARIS overexpression was performed (FIG. 4C). […] To ascertain whether the farnesylation of PARIS affects the DNA binding activity of PARIS on the IRS motif of the PGC-1α promoter, a chromatin immunoprecipitation assay (ChIP) was performed from SH-SY5Y transfected with GFP-tagged PARIS WT or GFP-tagged PARIS C631S. […] To examine the possibility that the farnesylation of PARIS alters its subcellular distribution, subcellular fractionation was used to monitor the levels of PARIS in cytosolic, membrane, soluble nuclear, and chromatin-bound nuclear fractions by immunoblot analysis (FIG. 4F).

[3] = tested on: PGC-1α; test: PGC-1α levels in SH-SY5Y cells by immunoblot; format: cell-based; settings: FIG. 3H
Method: The 9 compounds that activate the PGC-1α promoter in the presence of PARIS were evaluated to determine which compounds induce PGC-1α levels in SH-SY5Y cells (FIGS. 2A and 2B). […] The mRNA level of PGC-1α target genes including copper/zinc superoxide dismutase (SOD1), manganese SOD (SOD2), glutathione peroxidase (GPx1), catalase (CAT), nuclear respiratory factor-1 (NRF-1), mitochondrial transcription factor A (TFAM), mitochondrial uncoupling proteins (UCP2 and UCP3), and the oxidative phosphorylation regulators, ATP5b, cytochrome C (CytC) and cytochrome C oxidase (COX II and IV) were determined by real-time quantitative RT-PCR (qRT-PCR) (FIG. 2C).
as §1

Row | SMILES | farnesylation of GST-PARIS by FTase [1] | farnesylation of PARIS by farnesol under FTase inhibition [2] | PGC-1α levels, specificity test with compounds of similar structure [3]
1 | COC(=O)[C@H](CCSC)NC(=O)c1ccc(NC[C@@H](N)CS)cc1-c1ccccc1 [FTI-277, reference compound] | abolished | strongly prevents farnesylation of PARIS by farnesol | –
2 | CC(C)=CCC/C(C)=C/CO [Geraniol] | – | – | no effect
3 | CC(C)=CCC/C(C)=C/CC/C(C)=C/CC/C(C)=C/CO [geranylgeraniol] | – | – | no effect
